Laboratory results published in ChEMBL document CHEMBL3885881, “DrugMatrix”.

Organism: Rattus norvegicus
Experiment: DrugMatrix - Regimen: Daily Repeat
Format: toxicity, organism-based, Sprague-Dawley
Design: regimen Daily Repeat, gender Male, age 6-8 weeks
Conditions: in vivo, sc, route subcutaneous, […]; for ABSOLUTE BASOPHIL / ABSOLUTE EOSINOPHIL / ABSOLUTE LYMPHOCYTE / ABSOLUTE MONOCYTE / ABSOLUTE SEGMENTED NEUTROPHIL / BASOPHIL / EOSINOPHIL / ERYTHROCYTE COUNT / HEMATOCRIT / HEMOGLOBIN / LEUKOCYTE COUNT / LYMPHOCYTE / MEAN CORPUSCULAR HEMOGLOBIN / MEAN CORPUSCULAR HEMOGLOBIN CONCENTRATION / MEAN CORPUSCULAR VOLUME / MONOCYTE / NEUTROPHIL / NUCLEATED RED BLOOD CELLS / PLATELET COUNT: tissue Blood; for ALANINE AMINOTRANSFERASE / ALBUMIN / ALKALINE PHOSPHATASE / ASPARTATE AMINOTRANSFERASE / BLOOD UREA NITROGEN / CARBON DIOXIDE / CHLORIDE / CHOLESTEROL / CREATINE PHOSPHOKINASE / CREATININE / GLUCOSE / LACTATE DEHYDROGENASE / LIPASE / PHOSPHORUS / POTASSIUM / SODIUM / TOTAL BILIRUBIN / TOTAL PROTEIN / URIC ACID: tissue Plasma
[1] = 29 mg/kg, 120 h, dose level Low, time 5 day
[2] = 1200 mg/kg, 72 h, dose level High, time 3 day
[3] = 1200 mg/kg, 120 h, dose level High, time 5 day

## Nc1nc2c(ncn2CCC(CO)CO)c(=O)[nH]1 [PENCICLOVIR]
[1]
  ABSOLUTE BASOPHIL: 0 CELLS/uL
  ABSOLUTE EOSINOPHIL: 0 CELLS/uL
  ABSOLUTE LYMPHOCYTE: 9185.33 CELLS/uL
  ABSOLUTE MONOCYTE: 38 CELLS/uL
  ABSOLUTE SEGMENTED NEUTROPHIL: 2710 CELLS/uL
  BASOPHIL: 0%
  EOSINOPHIL: 0%
  ERYTHROCYTE COUNT: 5.6 x10E6/uL
  HEMATOCRIT: 35.77%
  HEMOGLOBIN: 13.33 G/DL
  LEUKOCYTE COUNT: 11.93 x10E3/uL
  LYMPHOCYTE: 77%
  MEAN CORPUSCULAR HEMOGLOBIN: 23.83 pg
  MEAN CORPUSCULAR HEMOGLOBIN CONCENTRATION: 37.27 G/DL
  MEAN CORPUSCULAR VOLUME: 63.8 fL
  MONOCYTE: 0.33%
  NEUTROPHIL: 22.67%
  NUCLEATED RED BLOOD CELLS: 0 /100WBC
  PLATELET COUNT: 979 x10E3/uL
  ALANINE AMINOTRANSFERASE: 64 u/L
  ALBUMIN: 3.9 G/DL
  ALKALINE PHOSPHATASE: 325.67 u/L
  ASPARTATE AMINOTRANSFERASE: 95 u/L
  BLOOD UREA NITROGEN: 19 mg/dL
  CARBON DIOXIDE: 24.67 mmol/L
  CHLORIDE: 105.33 MEQ/L
  CHOLESTEROL: 96.67 mg/dL
  CREATINE PHOSPHOKINASE: 520.33 u/L
  CREATININE: 0.18 mg/dL
  GLUCOSE: 168.33 mg/dL
  LACTATE DEHYDROGENASE: 141.67 u/L
  LIPASE: 8 u/L
  PHOSPHORUS: 14.77 mg/dL
  POTASSIUM: 6.25 MEQ/L
  SODIUM: 144.77 MEQ/L
  TOTAL BILIRUBIN: 0.17 mg/dL
  TOTAL PROTEIN: 5.7 G/DL
  URIC ACID: 1.5 mg/dL
[2]
  ABSOLUTE BASOPHIL: 0 CELLS/uL
  ABSOLUTE EOSINOPHIL: 107.33 CELLS/uL
  ABSOLUTE LYMPHOCYTE: 7265 CELLS/uL
  ABSOLUTE MONOCYTE: 87 CELLS/uL
  ABSOLUTE SEGMENTED NEUTROPHIL: 974 CELLS/uL
  BASOPHIL: 0%
  EOSINOPHIL: 1.33%
  ERYTHROCYTE COUNT: 4.97 x10E6/uL
  HEMATOCRIT: 30.73%
  HEMOGLOBIN: 11.67 G/DL
  LEUKOCYTE COUNT: 8.43 x10E3/uL
  LYMPHOCYTE: 86.33%
  MEAN CORPUSCULAR HEMOGLOBIN: 23.43 pg
  MEAN CORPUSCULAR HEMOGLOBIN CONCENTRATION: 37.97 G/DL
  MEAN CORPUSCULAR VOLUME: 61.77 fL
  MONOCYTE: 1%
  NEUTROPHIL: 11.33%
  NUCLEATED RED BLOOD CELLS: 0.33 /100WBC
  PLATELET COUNT: 1398.33 x10E3/uL
  ALANINE AMINOTRANSFERASE: 36 u/L
  ALBUMIN: 3.13 G/DL
  ALKALINE PHOSPHATASE: 311.67 u/L
  ASPARTATE AMINOTRANSFERASE: 64.33 u/L
  BLOOD UREA NITROGEN: 12.33 mg/dL
  CARBON DIOXIDE: 28 mmol/L
  CHLORIDE: 105.5 MEQ/L
  CHOLESTEROL: 58.33 mg/dL
  CREATINE PHOSPHOKINASE: 201.33 u/L
  CREATININE: 0.19 mg/dL
  GLUCOSE: 132.67 mg/dL
  LACTATE DEHYDROGENASE: 105.67 u/L
  LIPASE: 6.5 u/L
  PHOSPHORUS: 10.63 mg/dL
  POTASSIUM: 5.8 MEQ/L
  SODIUM: 147.5 MEQ/L
  TOTAL BILIRUBIN: 0.0667 mg/dL
  TOTAL PROTEIN: 5.97 G/DL
  URIC ACID: 0.93 mg/dL
[3]
  ABSOLUTE BASOPHIL: 0 CELLS/uL
  ABSOLUTE EOSINOPHIL: 219.33 CELLS/uL
  ABSOLUTE LYMPHOCYTE: 14998.67 CELLS/uL
  ABSOLUTE MONOCYTE: 280 CELLS/uL
  ABSOLUTE SEGMENTED NEUTROPHIL: 5502 CELLS/uL
  BASOPHIL: 0%
  EOSINOPHIL: 1%
  ERYTHROCYTE COUNT: 4.92 x10E6/uL
  HEMATOCRIT: 30.6%
  HEMOGLOBIN: 11.77 G/DL
  LEUKOCYTE COUNT: 21 x10E3/uL
  LYMPHOCYTE: 71.33%
  MEAN CORPUSCULAR HEMOGLOBIN: 23.97 pg
  MEAN CORPUSCULAR HEMOGLOBIN CONCENTRATION: 38.47 G/DL
  MEAN CORPUSCULAR VOLUME: 62.2 fL
  MONOCYTE: 1.33%
  NEUTROPHIL: 26.33%
  NUCLEATED RED BLOOD CELLS: 0 /100WBC
  PLATELET COUNT: 2260.33 x10E3/uL
  ALANINE AMINOTRANSFERASE: 31.33 u/L
  ALBUMIN: 2.63 G/DL
  ALKALINE PHOSPHATASE: 297.33 u/L
  ASPARTATE AMINOTRANSFERASE: 73.67 u/L
  BLOOD UREA NITROGEN: 22 mg/dL
  CARBON DIOXIDE: 25.33 mmol/L
  CHLORIDE: 103 MEQ/L
  CHOLESTEROL: 52 mg/dL
  CREATINE PHOSPHOKINASE: 232.33 u/L
  CREATININE: 0.34 mg/dL
  GLUCOSE: 147 mg/dL
  LACTATE DEHYDROGENASE: 216.33 u/L
  LIPASE: 6.67 u/L
  PHOSPHORUS: 12 mg/dL
  POTASSIUM: 6.2 MEQ/L
  SODIUM: 143.07 MEQ/L
  TOTAL BILIRUBIN: 0.1 mg/dL
  TOTAL PROTEIN: 5.73 G/DL
  URIC ACID: 2.3 mg/dL
